The results in this text go back to patent US10189824B2, “Pyrimidine-diamine dual HSP90/TRAP1 inhibitors” (CalAsia Pharmaceuticals, Inc., priority 2014, dated 2019).

In test [1] the test system is GBM39. In words: Cellular efficacy in Mayo Clinic GBM PDX cell line GBM39. Type of test: cell-based. The protocol:
(§1) Short-term explant cultures from PDX models were seeded into 96-well Perfecta3D hanging drop plates to form a single spheroid in each well after 2 days. The spheroids were transferred to a round bottom 96 well plate by centrifugation and then incubated with graded concentrations of test compound (8 spheroids per compound concentration). Spheroid volumes were monitored every 6 hours over the course of 5 days using the IncuCyte system (Essen BioScience, MI, US) to provide a growth curve akin to a tumor regrowth assay.

Test [2] concerns GBM43. The test can be described thus: Cellular efficacy in Mayo Clinic GBM PDX cell line GBM43. Type of test: cell-based. How it is done: as §1
The test system of test [3] is Hsp90 client proteins (Akt1, ERK1) in MDA-MB-231 cell line. The test can be described thus: Cellular biomarker assays (Akt1, ERK1 ELISA) in MDA-MB-231. The note with it: 48 hours. Type of test: cell-based. How it is done: (§2) Cellular biomarker assays: Cells were cultured in culture medium (RPMI-glutamax, 10% FCS, 100 units/ml penicillin, and 100 μg/ml streptomycin). Cells were passaged after lifting using 0.25% trypsin/EDTA, and 3×10^5 cells were seeded in each well of six well plates (total volume 2.5 mL/well). After the cells were cultured for 24 hours, increasing concentrations of Hsp90 inhibitor were added to wells in triplicate from DMSO-containing stock solutions and mixed by gently by stirring. Final DMSO concentration in all wells was 0.25%. The treated cells were then cultured for 48 hours prior to lysate preparation. The culture media was removed from wells, and the wells were washed twice with DPBS containing 1 mM CaCl2 and 0.5 mM MgCl2. […] The protein concentration in the cell lysates was determined using the BCA protein assay kit used according to the manufacturer's recommendations. […] Protein concentrations were determined using a micro-titer plate reader (Model # Synergy HT; BioTek Inc., Winooski, Vt.).
(§3) Akt1 and ERK1 levels in the cell lysates were measured using kits from R&D Systems used according to the manufacturer's recommendations. […] Akt1 and ERK1 levels were determined using a micro-titer plate reader (Model # Synergy HT; BioTek Inc., Winooski, Vt.) (FIGS. 5 and 8).
A general note: An ELISA detects its analyte on a solid surface through an enzyme-linked reagent.

For test [4], the system named is Hsp90 client proteins (Akt1, ERK1) in HEI193. The test can be described thus: Cellular biomarker assays (Akt1, ERK1 ELISA) in HEI193. Type of test: cell-based, human. The note with it: 48 hour treatment. The protocol: as §2, §3
The subject of test [5] is U251MG cells. The test can be described thus: Cell viability assay, ATP quantitation (ADP-Glo). Type of test: cell-based. Conditions: Homo sapiens, U-251; 72 h at 37° C.; FIG. 1B. The protocol:
U251MG cells were maintained at 37° C. and 5% CO2 in RPMI media supplemented with glutamax and containing 10% heat-inactivated fetal bovine serum and 1% penicillin/streptomycin (Life Sciences).
A cell counting kit (CCK-8 assay kit, Dojindo) and an ADP-Glo assay (Life Technologies) were used to quantitate the effects of test compounds on cell viability. U251MG cells were seeded into 96 well tissue culture plates and incubated for 16 h at 37° C. with 5% CO2. Increasing concentrations of test compounds were added to the wells from DMSO-containing stock solutions to a final DMSO concentration of 0.05% and incubated for 72 hr at 37° C. CCK-8 kit reagent or ADP-GLO reagent were then added to the wells and absorbance was measured at 450 nm (for the CCK assay) using a Synergy HT micro-titer plate reader (Biotek) or luminescence was measured (for the ADP-GLO assay) using a POLARstar Omega micro-titer plate reader (BMG).

The subject of test [6] is Akt1 levels in U251MG cells. The test can be described thus: Biomarker quantitation by ELISA, Akt1. Type of test: cell-based. How it is done:
U251 cells were plated in 6 well format culture dishes overnight at 37° C. with 5% CO2 and then treated with increasing concentrations of test compounds for 48 h at 37° C. with 5% CO2. Quantification of total Akt1, EGFR, and Hsp70 in cell lysates was accomplished using ELISA kits (R&D Systems) according to the manufacturer's recommendations and utilizing a Synergy HT micro-titer plate reader (Biotek). Cell lysates were prepared as recommended in the kit procedure. Protein concentrations of lysates clarified using centrifugation were determined using a Bradford assay (Thermo Scientific), and the values were used to normalize the biomarker values.

As for `COc1c(C)cnc(CN(CC2(c3ccc(F)cc3)CCOCC2)c2cc(Cl)nc(N)n2)c1C` [Compound A, 6-chloro-4-N-{[4-(4-fluorophenyl)oxan-4-yl]methyl}-4-N-[(4-methoxy-3,5-dimethylpyridin-2-yl)methyl]pyrimidine-2,4-diamine], the concentration giving a half-maximal response (EC50) in test [1] came out at 220 nM; in test [2], 280 nM. Further, in test [3], the “Effect on Akt1 and ERK1 levels, MDA-MB-231” value is given as “suppression of Hsp90 client proteins”. In addition, the “Effect on Akt1 and ERK1 levels, HEI193” value in test [4] is “reduction of Hsp90 client proteins”.

As to `COc1c(C)cnc(CN(CCc2ccccn2)c2cc(Cl)nc(N)n2)c1C` [Compound 1, 6-chloro-4-N-[(4-methoxy-3,5-dimethylpyridin-2yl)methyl]-4-N-[2-(pyridine-2-yl)ethyl]pyrimidine-2,4-amine], the IC50 in test [5] was determined as 2500 nM; in test [6] (Homo sapiens, U-251, 48 h, read-out: Akt1 level reduction IC50), 2400 nM. Also, the “Reduction of Akt1 levels” value in test [6] (15.6 uM, 48 h) came out at 79%.

Usually EC50 stands for the concentration at which the effect is half-maximal. A low value points to a more potent agent. One may read the IC50 as the midpoint of a concentration-inhibition curve.
